Reference: PubChem BioAssay AID1224921 (Broad Institute, 2016)
Activity calls are given as the source filed them. How the calls were made is not given here.

system: Clostridioides difficile clinical isolate growth, OD600, 24 h; experiment: inhibitors of Clostridioides difficile proliferation – 4-point retest, confirmation (AID 1224921)

SMILES | AC50
COc1ccccc1CNC(=O)C[C@H]1CC[C@H]2[C@@H](COC[C@H](O)CN2C(=O)Nc2ccc(C(F)(F)F)cc2)O1 | 12 µM
O=C(C[C@@H]1CC[C@@H]2[C@H](COC[C@H](O)CN2C(=O)Nc2ccc(C(F)(F)F)cc2)O1)NCC1CC1 | 1.14 µM
C[C@@H]1CN([C@H](C)CO)C(=O)c2cccc(NC(=O)Nc3ccc(C(F)(F)F)cc3)c2O[C@@H]1CN(C)C(=O)Nc1ccccc1 | 32.9 µM
O=C(C[C@H]1CC[C@H]2[C@@H](COC[C@H](O)CN2C(=O)Nc2ccc(C(F)(F)F)cc2)O1)NCCc1ccncc1 | 2.37 µM
C[C@@H]1CN([C@@H](C)CO)C(=O)c2cccc(NC(=O)Nc3ccc4c(c3)OCO4)c2O[C@@H]1CN(C)Cc1ccc(-c2ccccc2)cc1 | 0.665 µM
O=C(C[C@@H]1CC[C@H]2[C@@H](COC[C@@H](O)CN2C(=O)Nc2ccc(Cl)c(Cl)c2)O1)NCc1ccc(F)cc1 | 1.92 µM
O=C(NCC[C@H]1CC[C@H](NS(=O)(=O)c2ccc(F)cc2)[C@@H](CO)O1)Nc1ccc(Cl)cc1 | 16.7 µM
CO[C@@H]1CN(C)C(=O)c2cc(NC(=O)Nc3cc(Cl)cc(Cl)c3)ccc2OC[C@H](C)NC[C@@H]1C | 9.05 µM
CC(=O)N[C@@H]1CC[C@@H](CCNC(=O)Nc2ccc(C(F)(F)F)cc2)O[C@H]1CO | 12.7 µM
O=C(C[C@H]1CC[C@H]2[C@@H](COC[C@H](O)CN2S(=O)(=O)c2ccc(F)cc2)O1)NCC1CCCCC1 | 15.4 µM
C[C@@H]1CN([C@H](C)CO)S(=O)(=O)c2ccc(C#Cc3ccccc3)cc2O[C@H]1CN(C)C | 28.4 µM
CC(=O)N[C@H]1CC[C@H](CCNC(=O)Nc2ccc(C(F)(F)F)cc2)O[C@@H]1CO | 9.65 µM
C[C@@H]1CN([C@@H](C)CO)C(=O)c2c(c3ccccc3n2C)-c2ccccc2CO[C@@H]1CN(C)Cc1ccncc1 | > 60 µM (inactive)
CO[C@@H]1CN(C)C(=O)c2cc(NC(=O)Nc3ccc(F)cc3)ccc2OC[C@@H](C)NC[C@@H]1C | > 60 µM (inactive)
CO[C@@H]1CN(C)C(=O)c2ccc(NC(=O)Nc3cc(Cl)cc(Cl)c3)cc2OC[C@H](C)NC[C@@H]1C | 8.07 µM
CN(C)CC(=O)N1[C@H](C#N)[C@H](c2ccc(C#CC3CCCCC3)cc2)[C@H]1CO | 14.2 µM
O=C(C[C@@H]1CC[C@H]2[C@@H](COC[C@@H](O)CN2S(=O)(=O)c2ccc(Cl)cc2)O1)NCC1CCCCC1 | 15.8 µM
O=C(C[C@@H]1CC[C@@H]2[C@H](COC[C@H](O)CN2C(=O)Nc2ccc(C(F)(F)F)cc2)O1)NCCc1ccncc1 | 3.46 µM
O=C(C[C@@H]1CC[C@@H]2[C@H](COC[C@@H](O)CN2C(=O)Nc2ccc(Cl)c(Cl)c2)O1)NCc1ccncc1 | 4.07 µM
CCNC(=O)C[C@@H]1CC[C@H]2[C@@H](COC[C@@H](O)CN2C(=O)Nc2ccc(C(F)(F)F)cc2)O1 | 10.4 µM
O=C(C[C@H]1CC[C@H]2[C@@H](COC[C@@H](O)CN2C(=O)Nc2ccc(Cl)c(Cl)c2)O1)NCc1ccc(Cl)c(Cl)c1 | 1.08 µM
CCCNC(=O)C[C@H]1CC[C@@H]2[C@H](COC[C@H](O)CN2C(=O)Nc2ccc(Cl)c(Cl)c2)O1 | 3.77 µM
O=C(C[C@H]1CC[C@H]2[C@@H](COC[C@H](O)CN2C(=O)Nc2cc(Cl)cc(Cl)c2)O1)N1CCOCC1 | 4.04 µM
O=C(NCC[C@H]1CC[C@@H](NC(=O)Nc2cc(F)ccc2F)[C@H](CO)O1)Nc1ccc(Cl)cc1 | 18.5 µM

SMILES | AC50
CO[C@@H](CN(C)C(=O)C1CCOCC1)[C@H](C)CN(C(=O)Nc1ccc(C(F)(F)F)cc1)[C@@H](C)CO | 3.45 µM
COc1ccccc1CNC(=O)C[C@@H]1CC[C@@H]2[C@H](COC[C@H](O)CN2C(=O)Nc2ccc(C(F)(F)F)cc2)O1 | 0.614 µM
CO[C@H]1CN(C)C(=O)c2ccc(NC(=O)Nc3ccccc3)cc2OC[C@@H](C)NC[C@@H]1C | > 60 µM (inactive)
O=C(C[C@H]1CC[C@H]2[C@@H](COC[C@@H](O)CN2C(=O)Nc2cc(Cl)cc(Cl)c2)O1)N1CCOCC1 | 9.57 µM
O=C(C[C@@H]1CC[C@@H]2[C@H](COC[C@H](O)CN2C(=O)Nc2cc(Cl)cc(Cl)c2)O1)N1CCCCC1 | 1.41 µM
CO[C@H]1CN(C)C(=O)c2ccc(NC(=O)Nc3ccc(Cl)c(Cl)c3)cc2OC[C@H](C)NC[C@@H]1C | 1.2 µM
C[C@@H]1CN([C@@H](C)CO)C(=O)c2cc(NC(=O)Nc3ccc(C(F)(F)F)cc3)ccc2O[C@@H]1CN(C)CC1CCCCC1 | 9.84 µM
CCNC(=O)C[C@@H]1CC[C@H]2[C@@H](COC[C@H](O)CN2C(=O)Nc2ccc(Cl)c(Cl)c2)O1 | 7.98 µM
CO[C@H]1CN(C)C(=O)c2ccc(NC(=O)Nc3cc(Cl)cc(Cl)c3)cc2OC[C@H](C)NC[C@H]1C | 14 µM
CCCNC(=O)C[C@H]1CC[C@H]2[C@@H](COC[C@@H](O)CN2C(=O)Nc2ccc(Cl)c(Cl)c2)O1 | 2.78 µM
COc1ccc(S(=O)(=O)Nc2cccc3c2O[C@H](CN(C)Cc2ccc(Oc4ccccc4)cc2)[C@H](C)CN([C@@H](C)CO)C3=O)cc1 | 3.67 µM
O=C(NCC[C@H]1CC[C@H](NC(=O)c2cccnc2)[C@@H](CO)O1)Nc1ccc(C(F)(F)F)cc1 | 1.79 µM
C[C@@H](NC(=O)C[C@@H]1CC[C@@H]2[C@H](COC[C@H](O)CN2C(=O)Nc2cc(Cl)cc(Cl)c2)O1)c1ccccc1 | 9.64 µM
O=C(C[C@@H]1CC[C@@H]2[C@H](COC[C@@H](O)CN2C(=O)Nc2ccc(Cl)c(Cl)c2)O1)NCc1ccc(F)cc1 | 1.87 µM
C[C@H]1CN([C@@H](C)CO)C(=O)c2cccc(NC(=O)c3ccncc3)c2O[C@@H]1CN(C)Cc1ccc(-c2ccccc2)cc1 | 1.74 µM
C[C@@H]1CCCCO[C@H](CN(C)CC2CCCCC2)[C@H](C)CN([C@@H](C)CO)C(=O)c2cc(NS(=O)(=O)c3ccc(Cl)cc3)ccc2O1 | 14.6 µM
CO[C@@H]1CN(C)C(=O)c2cc(NC(=O)C3CCCC3)ccc2OC[C@@H](C)N(C(=O)Nc2ccc(C(F)(F)F)cc2)C[C@H]1C | 26.6 µM
C[C@H](CO)N1C[C@H](C)[C@H](CN(C)CC2CCCCC2)OCCCC[C@H](C)Oc2ccc(NC(=O)Nc3ccc(C(F)(F)F)cc3)cc2C1=O | 10.9 µM
O=C(C[C@H]1CC[C@@H]2[C@H](COC[C@@H](O)CN2C(=O)Nc2ccc(Cl)c(Cl)c2)O1)NCc1ccc(F)cc1 | 2.15 µM
O=C(C[C@H]1CC[C@@H]2[C@H](COC[C@@H](O)CN2C(=O)Nc2ccc(Cl)c(Cl)c2)O1)NCc1ccccc1 | 4.01 µM
CCC(=O)N[C@H]1CC[C@@H](CCNC(=O)Nc2ccc(C(F)(F)F)cc2)O[C@@H]1CO | 2.73 µM
O=C(C[C@H]1CC[C@H]2[C@@H](COC[C@@H](O)CN2C(=O)Nc2ccc(Cl)c(Cl)c2)O1)NCc1ccc(F)cc1 | 1.36 µM
CCNC(=O)C[C@@H]1CC[C@H]2[C@@H](COC[C@@H](O)CN2C(=O)Nc2ccc(Cl)c(Cl)c2)O1 | 2.6 µM
C[C@H](CO)N1C[C@H](C)[C@H](CN(C)C(=O)Nc2cccc3ccccc23)Oc2c(NC(=O)Nc3ccc(C(F)(F)F)cc3)cccc2C1=O | 31.7 µM

SMILES | AC50
CO[C@H](CN(C)S(=O)(=O)c1cn(C)cn1)[C@H](C)CN(C(=O)Nc1ccc(C(F)(F)F)cc1)[C@H](C)CO | 6.25 µM
CC(C)NC(=O)N(C)C[C@@H]1Oc2c(NC(=O)Nc3ccc(C(F)(F)F)cc3)cccc2C(=O)N([C@H](C)CO)C[C@@H]1C | 23.3 µM
C[C@@H]1CCCCO[C@@H](CN(C)CC2CCCCC2)[C@H](C)CN([C@H](C)CO)C(=O)c2cc(NC(=O)Nc3ccc(C(F)(F)F)cc3)ccc2O1 | 16.2 µM
CO[C@@H](CN(C)C(=O)C1CCOCC1)[C@@H](C)CN(C(=O)Nc1ccc(C(F)(F)F)cc1)[C@@H](C)CO | 3.66 µM
O=C(C[C@@H]1CC[C@@H]2[C@H](COC[C@H](O)CN2Cc2ccc(Oc3ccccc3)cc2)O1)N1CCCCC1 | 20.6 µM
CO[C@H](CN(C)C(=O)C1CCOCC1)[C@H](C)CN(C(=O)Nc1ccc(C(F)(F)F)cc1)[C@@H](C)CO | 4.13 µM
COc1ccc(CN(C)C[C@@H]2OCCCC[C@H](C)Oc3ccc(NC(=O)Nc4ccc(C(F)(F)F)cc4)cc3C(=O)N([C@H](C)CO)C[C@H]2C)cc1 | 3.24 µM
O=C(NCC[C@H]1CC[C@@H](NC(=O)C2CC2)[C@@H](CO)O1)Nc1ccc(C(F)(F)F)cc1 | 1.69 µM
CO[C@H](CN(C)Cc1cc(F)ccc1F)[C@H](C)CN(C(=O)Nc1ccc(C(F)(F)F)cc1)[C@H](C)CO | 10.3 µM
O=C(C[C@@H]1CC[C@@H]2[C@H](COC[C@H](O)CN2C(=O)Nc2ccc(Cl)c(Cl)c2)O1)NCc1ccc(Cl)c(Cl)c1 | 1.14 µM
O=C(C[C@@H]1CC[C@H]2[C@@H](COC[C@H](O)CN2C(=O)Nc2cc(Cl)cc(Cl)c2)O1)N1CCOCC1 | 17.6 µM
C[C@@H]1CN([C@H](C)CO)S(=O)(=O)c2ccc(C#CCC3CCCC3)cc2O[C@H]1CN(C)C | 16.9 µM
CNC(=O)C[C@@H]1CC[C@@H]2[C@H](COC[C@H](O)CN2C(=O)Nc2ccc(Cl)c(Cl)c2)O1 | 3.06 µM
COc1cccc(C#Cc2ccc3c(c2)O[C@@H](CN(C)C)[C@H](C)CN([C@H](C)CO)S3(=O)=O)c1 | 25.8 µM
CS(=O)(=O)N1[C@H](CO)[C@@H](c2ccc(C#CC3CCCCC3)cc2)[C@@H]1C#N | 17.6 µM
O=C(C[C@H]1CC[C@@H]2[C@H](COC[C@H](O)CN2C(=O)Nc2ccc(C(F)(F)F)cc2)O1)NC1Cc2ccccc2C1 | 6.36 µM
C[C@H]1CCCCO[C@H](CN(C)CC2CC2)[C@@H](C)CN([C@@H](C)CO)C(=O)c2cc(NC(=O)Nc3ccc(C(F)(F)F)cc3)ccc2O1 | 5.12 µM
CO[C@H]1CN(C)C(=O)c2ccc(NC(=O)c3nc4ccccc4s3)cc2OC[C@@H](C)N(Cc2ccncc2)C[C@@H]1C | 30.8 µM
CNC(=O)C[C@@H]1CC[C@H]2[C@@H](COC[C@H](O)CN2C(=O)Nc2ccc(Cl)c(Cl)c2)O1 | 7.63 µM
O=C(NCC[C@@H]1CC[C@@H](NC(=O)c2cccnc2)[C@H](CO)O1)Nc1ccc(C(F)(F)F)cc1 | 3.16 µM
C[C@@H]1CN([C@@H](C)CO)C(=O)Cc2cc(NC(=O)Nc3ccc(C(F)(F)F)cc3)ccc2O[C@H]1CN(C)Cc1ccccc1 | 17.9 µM
COc1ccc(CN(C)C[C@@H]2OCCCC[C@H](C)Oc3ccc(NC(=O)Nc4ccc(C(F)(F)F)cc4)cc3C(=O)N([C@H](C)CO)C[C@@H]2C)cc1 | > 60 µM (inactive)
COc1ccc(S(=O)(=O)Nc2ccc3c(c2)C(=O)N([C@@H](C)CO)C[C@H](C)[C@@H](CN(C)Cc2ccc4c(c2)OCO4)OCCCC[C@@H](C)O3)cc1 | 6.68 µM
CCCNC(=O)C[C@@H]1CC[C@@H]2[C@H](COC[C@H](O)CN2C(=O)Nc2ccc(Cl)c(Cl)c2)O1 | 3.54 µM
